Results taken from US20110105608A1, “MODULATORS OF NUCLEAR RECEPTOR CO-REGULATORY PROTEIN BINDING” (NORTHEASTERN UNIVERSITY, priority 2008, published 2011).
Values joined by “and” are separate entries in the source; they are usually repeats but may differ in a detail not shown here. Equal entries are not always repeated. Where two headings read alike, the source gives them in different places.

Experiments:
[1] = biological target: T1, interaction between ERα and the LXXLL2 peptide from the coactivator GRIP1 (Homo sapiens, UniProt P03372); experiment: Mammalian two hybrid assay; type: cell-based; conditions: FIG. 4; for Effect on the LXXLL-ER interaction: second assay, 5-40 μM
T1 construct: expressed in transfected cells
T1 sequence (P03372 1-595): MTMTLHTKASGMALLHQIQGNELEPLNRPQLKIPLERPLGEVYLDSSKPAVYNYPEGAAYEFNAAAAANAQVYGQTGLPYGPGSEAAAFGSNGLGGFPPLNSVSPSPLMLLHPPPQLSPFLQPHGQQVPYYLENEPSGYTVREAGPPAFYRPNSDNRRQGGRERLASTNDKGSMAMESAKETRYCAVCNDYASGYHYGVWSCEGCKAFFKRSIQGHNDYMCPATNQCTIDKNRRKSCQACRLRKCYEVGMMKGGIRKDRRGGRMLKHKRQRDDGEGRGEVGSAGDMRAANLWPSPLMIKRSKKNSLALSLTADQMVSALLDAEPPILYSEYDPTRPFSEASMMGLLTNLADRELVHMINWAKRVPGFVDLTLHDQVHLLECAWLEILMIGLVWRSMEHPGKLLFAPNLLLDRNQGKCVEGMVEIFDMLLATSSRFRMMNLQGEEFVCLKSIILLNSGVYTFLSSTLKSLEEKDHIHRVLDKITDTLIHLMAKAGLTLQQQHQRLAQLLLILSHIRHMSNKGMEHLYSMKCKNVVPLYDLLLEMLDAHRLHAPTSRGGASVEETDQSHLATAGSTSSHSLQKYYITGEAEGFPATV
Method: The Mammalian Hybrid Assay used a similar procedure as described in Chang et al., Molec. & Cellul. Biol., (1999) 19:12 8226-8239 except the compounds shown in Table 1, supra, were used instead of phage-derived peptides.
(§1) Human cervical cancer (HeLa) and hepatoma (HepG2) cells were cultured in minimum essential medium (Life Technologies, Inc.) supplemented with 10% fetal bovine serum (HyClone), 0.1 mM nonessential amino acids, and 1 mM sodium pyruvate (Life Technologies, Inc.) and maintained in a humidified 37° C. incubator with 5% CO2. For transient transfections, cells were split into 24-well plates 24 h before transfection. Lipofectin (Life Technologies, Inc.)-mediated transfection has been described in detail previously (27). A DNA-Lipofectin mixture containing a total of 3,000 ng of plasmid in each of triplicate samples was incubated with cells for 3 to 5 h, and transfection was stopped by replacing the transfection mix with fresh medium (minimal essential medium without phenol red) containing 10% charcoal-stripped serum. Receptor ligands were added to the cells 14 to 16 h before the assay. Luciferase and (3-galactosidase activities were measured. In mammalian two-hybrid assays, for a typical triplicate of transfection, 2,000 ng of 5×Gal4Luc3 reporter plasmid, 400 ng of receptor-VP16 fusion, 400 ng of pM (Gal4 DBD)-peptide fusion constructs, and 200 ng of normalization plasmid pCMVβgal were used. For ER transcription disruption assays, 1,600 ng of 3 XERE-TATA-Luc reporter, 200 ng of pCMVβgal, 400 ng of either pRST7ERα, pRST7ERβ, or other receptor mutant constructs, and 0 to 800 ng of pM-peptide fusion plasmids were used. The parent pM vector (Gal4DBD without peptide fusion) was used in these experiments to balance the amount of input DNA in transfections. All transfections were performed at least three times.
The mammalian two hybrid assay assessed whether the compounds disrupt the interaction between ERα and an LXXLL peptide derived from an ER coactivator (GRIP1). OH-tam is an ERα antagonist and was used as a positive control.
(§2) A second assay with another group of compounds was performed to determine the proper dose for use in cell culture. Compounds were used at concentrations between 5-40 μM. The mammalian two hybrid assay was used to examine the interaction between ERα and the LXXLL2 peptide from the coactivator GRIP1. #82 and OH-tam were used as controls.

cells = experiment: Toxicity to cells seen in the mammalian two hybrid dose-finding assay; type: cell-based, Human; conditions: FIG. 4; 5-40 μM in cell culture
Method: as §1, §2
AW78 was also effective. […] AW77 was very toxic to cells at the high concentrations tested.

full-length ER alpha = biological target: T2, full-length ER alpha (Homo sapiens, UniProt P03372); experiment: Cell-based luciferase reporter gene assay (2ERE Luc) in HEC-1 cells; conditions: * = very small dynamic range compared to positive control
T2 construct: 100 ng of full-length ER alpha expression vector; expressed in transfected cells; host or cells: HEC-1 (human endometrial cancer) cells
T2 sequence (P03372 1-595): T1 sequence (P03372 1-595)
Source text: (§3) The protocols for both the time-resolved fluorescence resonance energy transfer (TR-FRET) assay and the cell-based reporter gene assay can be found in Parent, et al. (2008) J. Med. Chem. 51(20):6512-30. A 15-mer SRC1-Box II peptide and a published guanylhydrazone CBI (Lafrate et al., (2008) Bioorg. Med. Chem. 2008:16(23)) were used as positive controls in the TR-FRET and reporter gene assays, respectively.
Human endometrial cancer (HEC-1) cells were maintained in culture and transfected in 24 well plates. HBSS (50 μL/well), Holo-transferrin (Sigma T1408) (20 μL/well), and lipofectin (Invitrogen no. 18292-011) (5 μL/well) were incubated together at RT for 5 min. A DNA mixture containing 200 ng of pCMVβ-galactosidase as an internal control, 500 ng of the estrogen responsive reporter gene plasmid 2ERE Luc, and 100 ng of full-length ER alpha expression vector with 75 μL of HBSS per well was added to the first mixture and allowed to incubate for 20 min at RT. After changing the cell media to Opti-MEM (350 μL/well), 150 μL of the transfection mixture was added to each well. The cells were incubated at 37° C. in a 5% CO2 containing incubator for 6 h before the medium was replaced with fresh medium containing 5% charcoal-dextran-treated calf serum and the desired concentrations of ligands. Luciferase reporter gene activity was assayed 24 h after ligand addition.
In the initial screen, compounds were assayed in a dose-response format at concentrations ranging from 20 μM to 0.6 μM; […]. Upon validation of antagonistic activity, mechanism of action was examined by repeating the compound titration in the presence of both 10^-7 and 10^-9 M E2 with an expectation that changing the concentration of E2 100-fold would not change the IC50 of true coactivator binding inhibitors. These assays was also repeated to confirm results. The positive control is a guanyl hydrazone.

[2] = biological target: T3, purified full-length human ERα (Homo sapiens, UniProt P03372); experiment: Estrogen receptor relative binding affinity assay, competitive radiometric, [3H]estradiol tracer; conditions: RBA of estradiol set to 100%, 18-24 h at 0° C.
T3 construct: purified full-length human ERα and ERβ were purchased from PanVera/Invitrogen; purchased PanVera/Invitrogen (Carlsbad, Calif.)
T3 sequence (P03372 1-595): T1 sequence (P03372 1-595)
Method: (§4) Relative binding affinity assays were run to determine whether the compounds of this disclosure are traditional ligands that compete with estradiol. […]; purified full-length human ERα and ERβ were purchased from PanVera/Invitrogen (Carlsbad, Calif.). Incubations were conducted for 18-24 h at 0° C. Hydroxyapatite (BioRad, Hercules, Calif.) was used to absorb the receptor-ligand complexes, and free ligand was washed away. The binding affinities are expressed as relative binding affinity (RBA) values with the RBA of estradiol set to 100%. […]

[3] = biological target: T4, purified full-length human ERβ (Homo sapiens, UniProt Q92731); experiment: as above; conditions: RBA of estradiol set to 100%, 18-24 h at 0° C.
T4 construct: purified full-length human ERα and ERβ were purchased from PanVera/Invitrogen; purchased PanVera/Invitrogen (Carlsbad, Calif.)
T4 sequence (Q92731 whole entry): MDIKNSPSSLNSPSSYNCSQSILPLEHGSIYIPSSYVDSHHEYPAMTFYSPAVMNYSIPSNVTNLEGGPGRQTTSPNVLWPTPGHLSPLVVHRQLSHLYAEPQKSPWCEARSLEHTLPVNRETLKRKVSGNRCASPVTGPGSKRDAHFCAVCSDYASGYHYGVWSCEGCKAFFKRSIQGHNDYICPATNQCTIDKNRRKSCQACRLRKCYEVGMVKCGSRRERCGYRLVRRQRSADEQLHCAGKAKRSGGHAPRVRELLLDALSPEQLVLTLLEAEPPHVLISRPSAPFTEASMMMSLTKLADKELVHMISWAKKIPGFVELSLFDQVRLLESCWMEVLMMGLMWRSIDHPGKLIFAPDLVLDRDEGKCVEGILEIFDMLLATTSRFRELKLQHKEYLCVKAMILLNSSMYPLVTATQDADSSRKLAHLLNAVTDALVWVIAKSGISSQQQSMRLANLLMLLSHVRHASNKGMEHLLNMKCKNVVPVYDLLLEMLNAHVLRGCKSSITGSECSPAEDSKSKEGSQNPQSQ
Method: as §4

[4] = biological target: T5, endogenous ERα in MCF7 cells (Homo sapiens, UniProt P03372); experiment: RBA assay, competition with 3H-estradiol in MCF7 cells; type: binding; conditions: 1 nM 3H-estradiol
T5 construct: the endogenous ERα in MCF7 cells; endogenous in cells; host or cells: MCF7 breast cancer cells
T5 sequence (P03372 1-595): T1 sequence (P03372 1-595)
Method: The RBA assay was performed to examine the ability of the compounds to compete for the binding of 1 nM of 3H-estradiol to the endogenous ERα in MCF7 cells.

ERα-417 / SRC-3-NRD = biological target: T6, ERα-417 / SRC-3-NRD (Homo sapiens, UniProt P03372, C381S/C530S); experiment: In vitro coactivator binding inhibitor TR-FRET CBI assay (displacement of SRC3); conditions: * = very small dynamic range compared to positive control
T6 sequence (P03372 304-554 C381S/C530S limits assumed): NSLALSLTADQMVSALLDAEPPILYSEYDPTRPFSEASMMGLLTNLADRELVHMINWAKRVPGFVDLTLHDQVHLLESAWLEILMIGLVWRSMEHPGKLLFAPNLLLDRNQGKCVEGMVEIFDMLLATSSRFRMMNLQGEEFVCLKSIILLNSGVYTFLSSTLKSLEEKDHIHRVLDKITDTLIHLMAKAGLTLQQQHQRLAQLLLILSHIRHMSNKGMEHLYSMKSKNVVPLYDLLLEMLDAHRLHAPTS
Source text: as §3
Purified ERα-417, labeled site-specifically with maleimide-biotin (Quanta BioDesign) and SRC-3-NRD, labeled nonspecifically through cysteine residues with iodoacetamide-fluorescein (Invitrogen), were used in the TR-FRET assays. […]. In a second 96-well Nunc polypropylene plate (Nalge Nunc International, Rochester, N.Y.), a 0.02 M solution of each coactivator binding inhibitor was serially diluted in a 1:10 fashion into DMF. Each concentration of coactivator binding inhibitor or vehicle was then diluted 1:10 into TR-FRET buffer, and 10 μL of this solution was added to the stock […] solution in the 96-well plate. After a 20 min incubation, 5 μL of 200 nM fluorescein-SRC-3-NRD was added to each well. This mixture was allowed to incubate for 1 h at RT in the dark. TR-FRET was measured using an excitation filter at 340/10 nm and emission filters for terbium and fluorescein at 495/20 and 520/25 nm, respectively. […].
The results are shown in FIGS. 1A and 1b and show the displacement of the SRC3. The peptide control has an IC50 of about 1 uM.

[5] = HEC-1 cells, in the presence of estradiol, read-out: Reporter Gene IC50
[6] = estradiol 1 μM, read-out: TR-FRET IC50
[7] = repeat run, read-out: TR-FRET Repeat
[8] = repeat run, read-out: Reporter Gene IC50 (μM) - repeat

CCOC(=O)COc1ccc(-c2ccc(O)c(C(C)(C)C)c2)cc1C(C)(C)C [AW-73]
Effect on the LXXLL-ER interaction [1]: induced LXXLL-ER interaction

CCOC(=O)COc1ccc(-c2ccc(O)c(C(C)CC)c2)cc1C(C)CC (stereo not drawn) [AW-78]
Effect on the LXXLL-ER interaction [1]: effective

CCOC(=O)COc1ccc(-c2ccc(OCCN(C)C)c(C(C)CC)c2)cc1C(C)CC (stereo not drawn) [AW-79]
Effect on the LXXLL-ER interaction [1]: induced LXXLL-ER interaction | Toxicity to cells (cells): toxic at a high dose

CN(C)CCOc1ccc(-c2ccc(OCC(=O)O)c(C(C)(C)C)c2)cc1C(C)(C)C [AW-82]
IC50 (full-length ER alpha; [5]): 6 µM | ERα RBA ([2]; listed as AW-III-82-56): 0.055% and 0.038% and 0.049 ± 0.016% | ERβ RBA ([3]; listed as AW-III-82-56): 0.018% and 0.017% and 0.018 ± 0.001% | Competition for the binding of 3H-estradiol [4]: competed

CCOC(=O)COc1ccc(-c2ccc(O)cc2)cc1 [AW-84]
Effect on the LXXLL-ER interaction [1]: induced LXXLL-ER interaction

CCC(C)c1cc(-c2ccc(OCC(=O)O)c(C(C)CC)c2)ccc1OCCN(C)C (stereo not drawn) [AW-87]
IC50 (ERα-417 / SRC-3-NRD; [6]): 87 µM | IC50 (ERα-417 / SRC-3-NRD; [7]): 227 µM | IC50 (full-length ER alpha; [5]): 1.8 µM | IC50 (full-length ER alpha; [8]): 6 µM | ERα RBA [2]: ~0.001% | ERβ RBA [3]: ~0.001%

CCOC(=O)COc1ccc(-c2ccc(O)c(C(C)C)c2)cc1C(C)C [PW-74]
Concentration at which the ERα-LXXLL2 interaction is inhibited ([1]; tested at 5-40 μM): about 40 μM | Toxicity to cells (cells): no significant toxicity

CCOC(=O)COc1ccc(-c2ccc(OCCN(C)C)c(C(C)C)c2)cc1C(C)C [PW-76]
Effect on the LXXLL-ER interaction [1]: induced LXXLL-ER interaction

CCOC(=O)COc1ccc(-c2ccc(O)c(Cc3ccccc3)c2)cc1Cc1ccccc1 [PW-77]
Toxicity to cells (cells): very toxic

CCOC(=O)COc1ccc(-c2ccc(OCCN(C)C)c(Cc3ccccc3)c2)cc1Cc1ccccc1 [PW-78]
Effect on the LXXLL-ER interaction [1]: induced LXXLL-ER interaction

CC(C)c1cc(-c2ccc(OCC(=O)O)c(C(C)C)c2)ccc1OCCN(C)C [PW-80]
IC50 (ERα-417 / SRC-3-NRD; [6]): 55 µM | IC50 (ERα-417 / SRC-3-NRD; [7]): 583 µM | IC50 (full-length ER alpha; [5]): 21 µM | ERα RBA [2]: <0.001% | ERβ RBA [3]: <0.001%

CN(C)CCOc1ccc(-c2ccc(OCC(=O)O)c(Cc3ccccc3)c2)cc1Cc1ccccc1 [PW-81]
IC50 (ERα-417 / SRC-3-NRD; [6]): 163 µM | IC50 (ERα-417 / SRC-3-NRD; [7]): 1100 µM | IC50 (full-length ER alpha; [5]): 13 µM | ERα RBA [2]: <0.001% | ERβ RBA [3]: ~0.001% | Competition for the binding of 3H-estradiol [4]: did not compete

CCOC(=O)COc1ccc(-c2ccc(OCCN(C)C)cc2)cc1 [PW-82]
Effect on the LXXLL-ER interaction [1]: induced LXXLL-ER interaction

CN(C)CCOc1ccc(-c2ccc(OCC(=O)O)cc2)cc1 [PW-83]
IC50 (ERα-417 / SRC-3-NRD; [6]): 205 µM | IC50 (ERα-417 / SRC-3-NRD; [7]): 2050 µM | IC50 (full-length ER alpha; [5]): 5.8 µM | IC50 (full-length ER alpha; [8]): 18 µM | ERα RBA [2]: <0.001% | ERβ RBA [3]: <0.001% | Competition for the binding of 3H-estradiol [4]: competed
